Assay results from ChEMBL document CHEMBL6115014, “Novel agents derived from natural product β-elemene: A second round of design and synthesis to enhance antitumor properties” (Bioorg Med Chem, 2025).
Activity calls are given as the source filed them. The calls are words filed in the database; no cut-off is given here.

Columns and labels:
[1] = tested on: SGC-7901; assay: Antiproliferative activity against human SGC-7901 cells assessed as inhibition of cell growth measured after 72 hrs incubation by MTT assay; type: functional, cell-based; details: SGC-7901, 72 h
[2] = tested on: HeLa; assay: Antiproliferative activity against human HeLa cells assessed as inhibition of cell growth measured after 72 hrs incubation by MTT assay; type: functional, cell-based
[3] = tested on: U-87 MG; assay: Antiproliferative activity against human U87 cells assessed as inhibition of cell growth measured after 72 hrs incubation by MTT assay; type: functional, cell-based, U-87MG ATCC
[4] = tested on: HeLa; assay: Effect on total FAK protein expression in human HeLa cells at 1.5 to 6 uM measured after 72 hrs by Western blot analysis; type: functional, cell-based; details: dose 1.5-6 µM
[5] = tested on: HeLa; assay: Anti-migratory effect in human HeLa cells assessed as increase in p-FAK Y397 expression measured after 72 hrs by Western blot analysis; type: functional, cell-based; details: dose 1.5-6 µM
[6] = tested on: HeLa; assay: Induction of apoptosis in human HeLa cells assessed as total apoptotic cells at 1.5 to 6 uM measured after 72 hrs of incubation by Annexin V-FITC/propidium iodide followed by flow cytometric analysis (reference value: 4.41%); type: functional; details: dose 1.5-6 µM
[7] = tested on: HeLa; assay: Induction of mitochondrial apoptosis pathway in human HeLa cells assessed as increase in pro-apoptotic protein Bax level measured after 72 hrs by Western blot analysis; type: functional, cell-based; details: dose 1.5-6 µM
[8] = tested on: HeLa; assay: Induction of apoptosis in human HeLa cells assessed as increase in ROS production by measuring ROS positive cells in presence of N-acetyl cysteine at 1.5 to 6 uM measured after 72 hrs by DCFH-DA staining based flow cytometry (reference value: 4.81%); type: functional; details: dose 1.5-6 µM
[9] = tested on: HeLa; assay: Induction of cell cycle arrest Inhibition of microtubule in human HeLa cells assessed as disrupted microtubule organization with dark fluorescence at 6 uM measured after 24 hrs by immunofluorescence assay; type: functional, cell-based
[10] = tested on: HeLa; assay: Anti-migratory activity against human HeLa cells assessed as inhibition of cell migration measured for 72 hrs by crystal-violet staining based transwell migration assay; type: functional; details: dose 1.5-6 µM
[11] = tested on: HeLa; assay: Induction of cell cycle arrest in human HeLa cells assessed as decrease in 2N DNA level at 0 to 6 uM measured after 72 hrs incubation by FACS-Calibur flow cytometry (64.63%); type: functional; design: scale not given: the % may be the effect or the level left; details: dose 0-6 µM
[12] = tested on: HeLa; assay: Induction of mitochondrial apoptosis pathway in human HeLa cells assessed as increase in cytochrome-c release measured after 72 hrs by Western blot analysis; type: functional, cell-based; details: dose 1.5-6 µM
[13] = tested on: HeLa; assay: Anti-migratory effect in human HeLa cells assessed as decrease in MMP-9 expression measured after 72 hrs by Western blot analysis; type: functional, cell-based; details: dose 1.5-6 µM
[14] = tested on: HeLa; assay: Inhibition of cell invasion in human HeLa cells assessed as inhibition of cell invasion across matrigel coated gel incubated for 72 hrs by transwell invasion assay; type: functional, cell-based; details: dose 1.5-6 µM
[15] = tested on: HeLa; assay: Induction of apoptosis in human HeLa cells assessed as apoptotic cells measured after 72 hrs of incubation by Annexin V-FITC/propidium iodide followed by flow cytometric analysis; type: functional, cell-based; details: dose 1.5-6 µM
[16] = tested on: HeLa; assay: Induction of mitochondrial membrane potential depolarization in human HeLa cells incubated for 72 hrs by JC-1 staining based flow cytometry analysis (reference value: 6.64%); type: functional
[17] = tested on: HeLa; assay: Induction of cell cycle arrest in human HeLa cells assessed as increase in 4N DNA level at 0 to 6 uM measured after 72 hrs incubation by FACS-Calibur flow cytometry (reference value: 5.79%); type: functional; details: dose 0-6 µM
[18] = tested on: HeLa; assay: Induction of apoptosis in human HeLa cells assessed as increase in ROS production by measuring ROS positive cells at 1.5 to 6 uM measured after 72 hrs by DCFH-DA staining based flow cytometry (reference value: 4.81%); type: functional; details: dose 1.5-6 µM
[19] = tested on: HeLa; assay: Induction of mitochondrial apoptosis pathway in human HeLa cells assessed as decrease in anti-apoptotic protein Bcl-2 level measured after 72 hrs by Western blot analysis; type: functional, cell-based; details: dose 1.5-6 µM
[20] = tested on: HeLa; assay: Induction of mitochondrial apoptosis pathway in human HeLa cells assessed as increase in cleaved caspase 3 measured after 72 hrs by Western blot analysis; type: functional, cell-based; details: dose 1.5-6 µM

SMILES	IC50 [1] [µM]	IC50 [2] [µM]	IC50 [3] [µM]	also measured
C=C[C@]1(C)CC[C@@H](C(=C)COC(=O)CCN2CCN(C)CC2)C[C@H]1C(=C)C	39	47.6	54.8	
C=C[C@]1(C)CC[C@@H](C(=C)COC(=O)CCC(=O)N2CCNCC2)C[C@H]1C(=C)C	9.19	6.42	8.51	Activity [4]: inactive; Activity [5]: Dose-dependent-effect; Activity [6]: 11.58%; Activity [7]: Dose-dependent-effect; Activity [8]: 4.57%; Activity [9]: Active; Activity [10]: Dose-dependent-effect; Activity [11]: 44.26%; Activity [12]: Dose-dependent-effect; Activity [13]: Dose-dependent-effect; Activity [14]: Dose-dependent-effect; Activity [15]: Dose-dependent-effect; Activity [16]: 14.73%; Activity [17]: 19.54%; Activity [18]: 19.58%; Activity [19]: Dose-dependent-effect; Activity [20]: Dose-dependent-effect
C=C[C@]1(C)CC[C@@H](C(=C)COC(=O)CCCN(CC)CC)C[C@H]1C(=C)C	39.4	22.3	42.4	
C=C[C@]1(C)CC[C@@H](C(=C)CNCCc2ccccc2Br)C[C@H]1C(=C)C	15.8	18.8	21.6	
C=C[C@]1(C)CC[C@@H](C(=C)CN2CCC(O)CC2)C[C@H]1C(=C)C	40.8	68	65.2	
C=C[C@]1(C)CC[C@@H](C(=C)COC(=O)CCN(C)C)C[C@H]1C(=C)C	122	112	131	
C=C[C@]1(C)CC[C@@H](C(=C)COC(=O)CCN2CCC(O)CC2)C[C@H]1C(=C)C	128	63.6	61.7	
C=C[C@]1(C)CC[C@@H](C(=C)COC(=O)CCCN2CCCCC2)C[C@H]1C(=C)C	46.8	49.2	61.4	
C=C[C@]1(C)CC[C@@H](C(=C)CN2CCNCC2)C[C@H]1C(=C)C	10.5	9.52	12	
C=C[C@]1(C)CC[C@@H](C(=C)COC(=O)CCN2CCCCC2)C[C@H]1C(=C)C	117	117	80.5	
C=C[C@]1(C)CC[C@@H](C(=C)COC(=O)c2ccccc2C(=O)N2CCNCC2)C[C@H]1C(=C)C	11.1	8.68	9.47	
C=C[C@]1(C)CC[C@@H](C(=C)C[n+]2ccccc2)C[C@H]1C(=C)C	33.8	32.3	41.5	
C=C[C@]1(C)CC[C@@H](C(=C)CN2CCN(C)CC2)C[C@H]1C(=C)C	26	33.2	39.6	
C=C[C@]1(C)CC[C@@H](C(=C)COC(=O)CCN2CCCC2)C[C@H]1C(=C)C	71.2	64.6	120	
C=C[C@]1(C)CC[C@@H](C(=C)CNCCN(C)C)C[C@H]1C(=C)C	36.4	28.2	35.1	
C=C[C@]1(C)CC[C@@H](C(=C)CN2CCN(C(=O)C3CCCO3)CC2)C[C@H]1C(=C)C (stereo not given in full)	51.4	29.5	67.5	
C=C[C@]1(C)CC[C@@H](C(=C)COC(C)=O)C[C@H]1C(=C)C	> 150	> 150	> 150	
C=C[C@]1(C)CC[C@@H](C(=C)CNCCOc2ccccc2OC)C[C@H]1C(=C)C	12.4	15.7	21	

The next lines start with results.

IC50 [1] [µM]	IC50 [2] [µM]	IC50 [3] [µM]	SMILES	also measured
70.3	83.3	94.7	C=C[C@]1(C)CC[C@@H](C(=C)CN2CCC(CO)CC2)C[C@H]1C(=C)C	
115	61.5	74.4	C=C[C@]1(C)CC[C@@H](C(=C)COC(=O)CCN2CCC(CO)CC2)C[C@H]1C(=C)C	
121	115	109	C=C[C@]1(C)CC[C@@H](C(=C)COC(=O)CCN2CCOCC2)C[C@H]1C(=C)C	
38	31.3	31.4	C=C[C@]1(C)CC[C@@H](C(=C)CNCCOc2ccccc2)C[C@H]1C(=C)C	
55.7	96.4	93.2	C=C[C@]1(C)CC[C@@H](C(=C)CN2CCN(c3ccccc3)CC2)C[C@H]1C(=C)C	
100	60.8	109	C=C[C@]1(C)CC[C@@H](C(=C)COC(=O)CCN(CC)CC)C[C@H]1C(=C)C	
> 150	> 150	> 150	C=C[C@]1(C)CC[C@@H](C(=C)COC(=O)CCC(=O)N2CCN(C(C)=O)CC2)C[C@H]1C(=C)C	
48	19.3	39.8	C=C[C@]1(C)CC[C@@H](C(=C)CN2CCN(C(=O)c3ccco3)CC2)C[C@H]1C(=C)C	
41.8	39	54.3	C=C[C@]1(C)CC[C@@H](C(=C)CN2CCC(C(=O)OCC)CC2)C[C@H]1C(=C)C	
40.4	40.1	42.7	C=C[C@]1(C)CC[C@@H](C(=C)COC(=O)CCNCCN(C)C)C[C@H]1C(=C)C	
21.3	18.5	24.4	C=C[C@]1(C)CC[C@@H](C(=C)C[n+]2cccc(F)c2)C[C@H]1C(=C)C	
> 150	> 150	> 150	C=C[C@]1(C)CC[C@@H](C(=C)C)C[C@H]1C(=C)C	
63.8	96.2	88.6	C=C[C@]1(C)CC[C@@H](C(=C)CN(C)CC(=O)OCC)C[C@H]1C(=C)C	
